Assay results published in ChEMBL document CHEMBL2034889, “The design and synthesis of novel, potent and orally bioavailable N-aryl piperazine-1-carboxamide CCR2 antagonists with very high hERG selectivity” (Bioorg Med Chem Lett, 2012).
≈ marks a conversion by molar mass, not a printed value. Calls of active or inactive are those of the source. The calls are words filed in the database; no cut-off is given here.

Key:
[1] = molecular target: T1, Voltage-gated inwardly rectifying potassium channel KCNH2 (Homo sapiens, UniProt Q12809)
[2] = molecular target: T2, C-C chemokine receptor type 2 (Homo sapiens, UniProt P41597); assay: Antagonist activity at human CCR2 receptor expressed in human THP-1 cells assessed as inhibition of MCP1-induced Ca2+ flux by FLIPR analysis; type: functional, cell-based
[3] = molecular target: T2, C-C chemokine receptor type 2; assay: Displacement of 125I-MCP1 from human CCR2 receptor expressed in human THP-1 cell membrane by SPA assay; type: cell membranes
[4] = molecular target: T2, C-C chemokine receptor type 2; assay: Displacement of 125I-MCP1 from human CCR2 receptor expressed in human HEK cell membrane; type: cell membranes, HEK293
[5] = Intrinsic clearance in dog hepatocytes assessed per 10^6 cells; type: ADME, cell-based, Canis lupus familiaris, Hepatocyte; conditions: read-out: CLH
[6] = Volume of distribution at steady state in rat at 4 umol/kg, iv; type: ADME, organism-based; conditions: in vivo, read-out: Vdss
[7] = Volume of distribution at steady state in dog at 4 umol/kg, iv; type: ADME, organism-based, Canis lupus familiaris; conditions: in vivo, read-out: Vdss
[8] = Clearance in dog at 4 umol/kg, iv; type: ADME, organism-based, Canis lupus familiaris; conditions: in vivo
[9] = molecular target: T1, Voltage-gated inwardly rectifying potassium channel KCNH2; assay: Inhibition of human ERG by electrophysiology assay
[10] = molecular target: T2, C-C chemokine receptor type 2; assay: Antagonist activity at human CCR2 in human peripheral whole blood assessed as inhibition of MCP1-induced L-selectin shedding; type: functional, tissue-based; conditions: read-out: pA2 (converted)
[11] = Antagonist activity at dog CCR2 receptor expressed in human THP-1 cells assessed as inhibition of MCP1-induced Ca2+ flux by FLIPR analysis; type: functional, cell-based
[12] = Half life in rat at 4 umol/kg, iv; type: ADME, organism-based; conditions: in vivo
[13] = Aqueous solubility of the compound; type: physicochemical; conditions: buffer
[14] = Oral bioavailability in dog at 4 umol/kg; type: ADME, organism-based, Canis lupus familiaris; conditions: in vivo
[15] = molecular target: T3, C-C chemokine receptor type 1 (Homo sapiens) (UniProt P32246); assay: Inhibition of human CCR1 by FLIPR analysis
T3 sequence (whole entry): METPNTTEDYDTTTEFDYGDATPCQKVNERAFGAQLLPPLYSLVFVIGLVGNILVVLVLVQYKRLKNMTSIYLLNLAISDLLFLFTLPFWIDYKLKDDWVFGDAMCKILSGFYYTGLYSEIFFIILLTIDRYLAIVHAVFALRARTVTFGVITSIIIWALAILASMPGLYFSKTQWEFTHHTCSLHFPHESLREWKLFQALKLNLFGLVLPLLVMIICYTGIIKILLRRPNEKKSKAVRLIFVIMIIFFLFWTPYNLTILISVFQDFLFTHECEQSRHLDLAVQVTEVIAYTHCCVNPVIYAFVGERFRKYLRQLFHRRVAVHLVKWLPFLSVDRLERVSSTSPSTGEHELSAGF

[16] = molecular target: T4, C-C chemokine receptor type 2 (Rattus norvegicus, UniProt O55193); assay: Antagonist activity at rat CCR2 receptor expressed in human THP-1 cells assessed as inhibition of MCP1-induced Ca2+ flux by FLIPR analysis; type: functional, cell-based
T4 sequence (O55193 whole entry): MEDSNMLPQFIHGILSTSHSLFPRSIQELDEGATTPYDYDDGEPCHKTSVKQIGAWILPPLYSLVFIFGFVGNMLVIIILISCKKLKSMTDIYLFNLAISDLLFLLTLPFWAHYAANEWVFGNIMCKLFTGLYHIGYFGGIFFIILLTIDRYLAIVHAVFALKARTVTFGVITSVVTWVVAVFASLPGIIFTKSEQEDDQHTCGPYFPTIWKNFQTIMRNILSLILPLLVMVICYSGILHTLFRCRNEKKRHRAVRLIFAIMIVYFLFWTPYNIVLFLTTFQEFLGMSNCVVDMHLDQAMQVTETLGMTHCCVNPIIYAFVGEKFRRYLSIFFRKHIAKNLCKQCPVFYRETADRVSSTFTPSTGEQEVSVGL

[17] = Lipophilicity, log D of the compound at pH 7.4; type: physicochemical; conditions: buffer
[18] = Clearance in rat at 4 umol/kg, iv; type: ADME, organism-based; conditions: in vivo
[19] = molecular target: T5, C-X-C chemokine receptor type 5 (Homo sapiens) (UniProt P32302); assay: Inhibition of human CXCR5 by FLIPR analysis
T5 sequence (whole entry): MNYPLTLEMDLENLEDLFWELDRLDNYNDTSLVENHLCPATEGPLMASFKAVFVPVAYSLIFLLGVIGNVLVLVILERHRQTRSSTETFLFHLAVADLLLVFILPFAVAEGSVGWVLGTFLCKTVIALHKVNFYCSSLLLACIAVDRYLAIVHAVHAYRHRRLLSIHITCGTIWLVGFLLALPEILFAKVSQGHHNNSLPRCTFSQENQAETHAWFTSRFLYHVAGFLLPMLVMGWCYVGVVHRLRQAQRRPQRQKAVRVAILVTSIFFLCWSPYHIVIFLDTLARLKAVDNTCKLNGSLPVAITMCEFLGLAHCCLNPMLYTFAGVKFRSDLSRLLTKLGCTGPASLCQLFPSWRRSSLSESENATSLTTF

[20] = Intrinsic clearance in rat hepatocytes assessed per 10^6 cells; type: ADME, cell-based, Hepatocyte; conditions: read-out: CLH
[21] = molecular target: C-X-C chemokine receptor type 4 (Homo sapiens) (UniProt P61073); assay: Inhibition of human CXCR4 by FLIPR analysis
[22] = Lipophilicity, log P of the compound at pH 7.4; type: physicochemical; conditions: buffer
[23] = molecular target: C-C chemokine receptor type 5 (Homo sapiens, UniProt P51681); assay: Inhibition of human CCR5 by FLIPR analysis
[24] = molecular target: C-C chemokine receptor type 2 (Mus musculus, UniProt P51683); assay: Antagonist activity at mouse CCR2 receptor expressed in human THP-1 cells assessed as inhibition of MCP1-induced Ca2+ flux by FLIPR analysis; type: functional, cell-based
[25] = Dissociation constant, pKa of the compound; type: physicochemical
[26] = Half life in dog at 4 umol/kg, iv; type: ADME, organism-based, Canis lupus familiaris; conditions: in vivo
[27] = molecular target: C-C chemokine receptor type 8 (Homo sapiens) (UniProt P51685); assay: Inhibition of human CCR8 by FLIPR analysis
[28] = Oral bioavailability in rat at 11 umol/kg; type: ADME, organism-based; conditions: in vivo
[29] = Intrinsic clearance in human hepatocytes assessed per 10^6 cells; type: ADME, cell-based, Hepatocyte; conditions: read-out: CLH
[30] = Aqueous solubility at pH 7. 4; type: physicochemical; conditions: buffer
[31] = Fraction unbound in human plasma; type: ADME, cell-free
[32] = Volume of distribution in rat; type: ADME, organism-based; conditions: in vivo
Cytochrome P450 2D6 = Cytochrome P450 2D6 (Homo sapiens, UniProt P10635); assay: Inhibition of CYP2D6; type: ADME
[33] = Half life in rat; type: ADME, organism-based; conditions: in vivo
[34] = Clearance in iv dosed rat; type: ADME, organism-based; conditions: in vivo
[35] = Fraction unbound in rat plasma; type: ADME, cell-free
Cytochrome P450 3A4 = Cytochrome P450 3A4 (Homo sapiens, UniProt P08684); assay: Inhibition of CYP3A4; type: ADME
[36] = Intrinsic clearance in human microsomes assessed per mg of protein; type: ADME, Microsome
[37] = Oral bioavailability in rat; type: ADME, organism-based; conditions: in vivo

T2 sequence (P41597 whole entry): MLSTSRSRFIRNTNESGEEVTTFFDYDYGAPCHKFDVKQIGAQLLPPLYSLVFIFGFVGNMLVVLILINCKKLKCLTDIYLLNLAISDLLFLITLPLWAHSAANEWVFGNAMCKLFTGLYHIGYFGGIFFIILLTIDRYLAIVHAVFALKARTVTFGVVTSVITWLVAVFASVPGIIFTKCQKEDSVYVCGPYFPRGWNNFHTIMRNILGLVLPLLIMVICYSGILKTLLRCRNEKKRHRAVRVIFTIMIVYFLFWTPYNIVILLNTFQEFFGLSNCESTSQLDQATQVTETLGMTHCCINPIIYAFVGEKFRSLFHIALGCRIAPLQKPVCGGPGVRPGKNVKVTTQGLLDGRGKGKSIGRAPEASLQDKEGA
T1 sequence (Q12809 whole entry): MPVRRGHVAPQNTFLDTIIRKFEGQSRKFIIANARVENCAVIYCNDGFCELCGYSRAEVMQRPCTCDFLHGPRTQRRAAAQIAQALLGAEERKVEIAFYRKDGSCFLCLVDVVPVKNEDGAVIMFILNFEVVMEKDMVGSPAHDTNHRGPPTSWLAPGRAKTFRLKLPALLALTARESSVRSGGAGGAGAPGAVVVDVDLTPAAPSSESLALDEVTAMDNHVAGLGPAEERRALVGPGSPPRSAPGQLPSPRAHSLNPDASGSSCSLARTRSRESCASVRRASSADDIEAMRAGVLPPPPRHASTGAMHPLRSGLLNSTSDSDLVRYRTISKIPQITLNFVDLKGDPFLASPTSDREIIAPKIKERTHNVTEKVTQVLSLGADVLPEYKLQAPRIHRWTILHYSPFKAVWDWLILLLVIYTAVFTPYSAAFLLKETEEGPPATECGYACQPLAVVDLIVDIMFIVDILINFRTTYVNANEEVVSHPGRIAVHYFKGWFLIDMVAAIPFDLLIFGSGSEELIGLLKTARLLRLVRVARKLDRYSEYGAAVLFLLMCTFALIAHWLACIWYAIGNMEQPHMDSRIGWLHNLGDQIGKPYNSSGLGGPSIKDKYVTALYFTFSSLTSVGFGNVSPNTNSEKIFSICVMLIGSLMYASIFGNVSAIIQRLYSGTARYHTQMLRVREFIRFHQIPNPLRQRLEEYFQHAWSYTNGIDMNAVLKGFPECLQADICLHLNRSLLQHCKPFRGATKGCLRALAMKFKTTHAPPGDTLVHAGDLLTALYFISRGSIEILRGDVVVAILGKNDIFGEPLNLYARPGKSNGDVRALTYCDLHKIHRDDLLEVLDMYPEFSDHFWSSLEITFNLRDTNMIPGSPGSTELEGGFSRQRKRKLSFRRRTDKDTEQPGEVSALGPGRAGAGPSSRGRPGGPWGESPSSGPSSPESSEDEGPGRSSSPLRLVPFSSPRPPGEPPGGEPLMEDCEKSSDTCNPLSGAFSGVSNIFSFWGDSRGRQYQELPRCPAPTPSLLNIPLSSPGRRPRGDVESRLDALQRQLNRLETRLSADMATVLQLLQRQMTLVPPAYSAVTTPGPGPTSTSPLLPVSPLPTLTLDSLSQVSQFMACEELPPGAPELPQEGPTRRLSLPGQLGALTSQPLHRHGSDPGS
Chain of Cytochrome P450 2D6 (P10635 whole entry): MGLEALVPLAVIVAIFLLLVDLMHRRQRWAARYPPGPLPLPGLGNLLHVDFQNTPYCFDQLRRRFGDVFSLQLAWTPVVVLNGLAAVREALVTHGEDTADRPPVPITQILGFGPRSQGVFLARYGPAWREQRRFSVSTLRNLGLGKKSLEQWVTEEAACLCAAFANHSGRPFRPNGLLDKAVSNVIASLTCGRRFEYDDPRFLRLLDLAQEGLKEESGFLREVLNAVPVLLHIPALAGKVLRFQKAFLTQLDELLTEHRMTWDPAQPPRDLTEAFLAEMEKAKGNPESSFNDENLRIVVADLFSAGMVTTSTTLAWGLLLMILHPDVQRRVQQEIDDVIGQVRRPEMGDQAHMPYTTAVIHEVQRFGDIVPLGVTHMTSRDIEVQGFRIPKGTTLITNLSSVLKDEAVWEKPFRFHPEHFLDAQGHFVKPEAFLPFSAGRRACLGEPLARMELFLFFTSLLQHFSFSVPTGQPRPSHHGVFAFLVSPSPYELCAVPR
Chain of C-C chemokine receptor type 5 (P51681 whole entry): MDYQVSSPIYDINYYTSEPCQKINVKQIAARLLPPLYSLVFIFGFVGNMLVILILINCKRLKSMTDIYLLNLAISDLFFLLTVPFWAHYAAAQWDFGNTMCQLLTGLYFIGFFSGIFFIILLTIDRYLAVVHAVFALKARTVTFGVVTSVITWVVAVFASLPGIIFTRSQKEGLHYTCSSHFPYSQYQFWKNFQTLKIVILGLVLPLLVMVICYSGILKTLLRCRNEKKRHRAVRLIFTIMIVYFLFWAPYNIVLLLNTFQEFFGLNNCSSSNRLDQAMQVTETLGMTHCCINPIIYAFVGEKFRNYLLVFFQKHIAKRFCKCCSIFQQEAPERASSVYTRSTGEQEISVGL
Chain of C-C chemokine receptor type 8 (Homo sapiens) (P51685 whole entry): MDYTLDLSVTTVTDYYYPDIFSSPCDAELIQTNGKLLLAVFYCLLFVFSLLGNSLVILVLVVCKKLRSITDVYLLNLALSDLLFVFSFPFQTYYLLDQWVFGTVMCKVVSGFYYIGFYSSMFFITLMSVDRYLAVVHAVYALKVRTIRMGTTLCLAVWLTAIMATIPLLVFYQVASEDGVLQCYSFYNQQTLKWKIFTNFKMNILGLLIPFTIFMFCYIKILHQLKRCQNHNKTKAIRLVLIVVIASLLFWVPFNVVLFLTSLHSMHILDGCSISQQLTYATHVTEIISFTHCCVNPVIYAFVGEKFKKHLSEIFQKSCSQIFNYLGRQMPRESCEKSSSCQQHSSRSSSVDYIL
Chain of C-C chemokine receptor type 2 (Mus musculus, UniProt P51683) (P51683 whole entry): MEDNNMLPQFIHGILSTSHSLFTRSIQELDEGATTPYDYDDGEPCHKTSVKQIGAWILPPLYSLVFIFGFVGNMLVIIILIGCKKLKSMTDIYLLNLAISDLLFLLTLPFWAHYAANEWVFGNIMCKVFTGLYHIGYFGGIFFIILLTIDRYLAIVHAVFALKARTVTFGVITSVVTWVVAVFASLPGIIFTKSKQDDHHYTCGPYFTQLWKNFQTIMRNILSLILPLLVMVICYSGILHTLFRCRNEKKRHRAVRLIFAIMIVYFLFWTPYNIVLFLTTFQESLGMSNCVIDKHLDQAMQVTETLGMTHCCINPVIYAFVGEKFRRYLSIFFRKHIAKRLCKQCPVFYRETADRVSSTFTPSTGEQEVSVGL
Chain of Cytochrome P450 3A4 (P08684 whole entry): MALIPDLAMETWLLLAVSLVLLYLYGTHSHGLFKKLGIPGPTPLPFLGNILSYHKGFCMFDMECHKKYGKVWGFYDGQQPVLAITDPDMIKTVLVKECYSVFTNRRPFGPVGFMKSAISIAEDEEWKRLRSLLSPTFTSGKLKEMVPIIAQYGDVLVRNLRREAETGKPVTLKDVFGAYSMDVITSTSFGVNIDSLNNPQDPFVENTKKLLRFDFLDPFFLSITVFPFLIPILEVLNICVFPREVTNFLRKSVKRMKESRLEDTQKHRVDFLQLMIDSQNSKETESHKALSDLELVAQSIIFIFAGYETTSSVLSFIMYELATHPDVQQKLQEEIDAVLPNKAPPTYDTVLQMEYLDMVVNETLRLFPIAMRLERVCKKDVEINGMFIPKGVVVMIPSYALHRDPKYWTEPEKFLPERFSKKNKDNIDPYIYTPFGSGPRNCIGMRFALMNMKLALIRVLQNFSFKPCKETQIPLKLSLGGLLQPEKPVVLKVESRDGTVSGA
Chain of C-X-C chemokine receptor type 4 (Homo sapiens) (P61073 whole entry): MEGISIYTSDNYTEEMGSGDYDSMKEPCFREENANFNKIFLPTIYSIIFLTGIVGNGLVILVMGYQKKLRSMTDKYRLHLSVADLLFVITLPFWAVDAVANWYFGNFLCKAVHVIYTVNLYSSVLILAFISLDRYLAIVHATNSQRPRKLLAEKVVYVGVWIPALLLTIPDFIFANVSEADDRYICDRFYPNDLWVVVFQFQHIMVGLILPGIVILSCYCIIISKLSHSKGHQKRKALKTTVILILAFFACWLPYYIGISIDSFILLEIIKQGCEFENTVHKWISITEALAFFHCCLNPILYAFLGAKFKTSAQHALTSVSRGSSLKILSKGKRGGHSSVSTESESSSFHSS

O=C(Nc1ccc(Cl)cc1)N1CCN(C[C@@H]2CCCN(C3CC3)C2)CC1
IC50 [1]: 14000 nM | IC50 [2]: 220 nM | IC50 [3]: 127 nM

CN1CCCC(CN2CCN(C(=O)Nc3ccc(Cl)c(Cl)c3)CC2)C1 (stereo unspecified)
Ki [4]: 400 nM | IC50 [1]: 1600 nM | IC50 [2]: 965 nM | IC50 [3]: 170 nM

O=C(Nc1ccc(Cl)c(Cl)c1)N1CCN(C(=O)[C@H]2CN(C3CC3)CCN2)CC1
IC50 [1]: 19000 nM | IC50 [2]: 38 nM | IC50 [3]: 32 nM

CC(C)N1CCN[C@@H](C(=O)N2CCN(C(=O)Nc3ccc(Cl)c(Cl)c3)CC2)C1
hepatocyte CLint [5]: < 2 µL/min/1e6 cells | Vd [6]: 4 L/kg | Vd [7]: 8.5 L/kg | clearance [8]: 17 mL/min/kg | IC50 [9]: 60000 nM | Kb [10]: 3.47 nM | IC50 [11]: 1600 nM | half-life [12]: 3 h | solubility [13]: > 3100 µM | bioavailability [14]: 83% | inhibition [15]: inactive | IC50 [16]: 200 nM | logD [17]: 2.21 | clearance [18]: 30 mL/min/kg | inhibition [19]: inactive | hepatocyte CLint [20]: < 2 µL/min/1e6 cells | inhibition [21]: inactive | logD [22]: 2.7 | IC50 [1]: 17000 nM | IC50 [23]: 22 nM | IC50 [24]: 1200 nM | IC50 [2]: 5.8 nM | pKa [25]: 7.8 | IC50 [3]: 3.5 nM | half-life [26]: 9.1 h | inhibition [27]: inactive | bioavailability [28]: 11% | hepatocyte CLint [29]: < 2 µL/min/1e6 cells

O=C(Nc1ccc(Cl)c(Cl)c1)N1CCN(C[C@@H]2CCCN(CCc3ccccc3)C2)CC1
IC50 [2]: 42 nM | IC50 [3]: 5 nM

CCN1CCO[C@@H](CN2CCN(C(=O)Nc3ccc(Cl)c(Cl)c3)CC2)C1
IC50 [1]: 7900 nM | IC50 [2]: 277 nM | IC50 [3]: 64 nM

O=C(Nc1ccccc1Cl)N1CCN(C[C@@H]2CCCN(C3CC3)C2)CC1
IC50 [3]: > 10000 nM

O=C(Nc1ccc(Cl)c(Cl)c1)N1CCN(C[C@H]2CN(C3CC3)CCO2)CC1
IC50 [2]: 262 nM | IC50 [3]: 267 nM

CCN1CCC[C@H](CN2CCN(C(=O)Nc3ccc(Cl)c(Cl)c3)CC2)C1
IC50 [3]: 1180 nM

CC(C)N1CCO[C@@H](CN2CCN(C(=O)Nc3ccc(Cl)c(Cl)c3)CC2)C1
IC50 [1]: 6300 nM | IC50 [2]: 42 nM | IC50 [3]: 17 nM

O=C(Nc1ccccc1)N1CCN(C[C@@H]2CCCN(C3CC3)C2)CC1
IC50 [2]: > 3000 nM | IC50 [3]: 710 nM

O=C(Nc1cccc(Cl)c1)N1CCN(C[C@@H]2CCCN(C3CC3)C2)CC1
IC50 [2]: 202 nM | IC50 [3]: 171 nM

CCN1CCC[C@@H](C(=O)N2CCN(C(=O)Nc3ccc(Cl)c(Cl)c3)CC2)C1
IC50 [2]: 588 nM | IC50 [3]: 856 nM

O=C(Nc1ccc(Cl)c(Cl)c1)N1CCN(C[C@@H]2CCCN(C3CC3)C2)CC1
solubility [30]: 290 µM (≈ 119 µg/mL) | fraction unbound [31]: 0.05 | Vd [32]: 8 L/kg | IC50 (Cytochrome P450 2D6): 3100 nM | half-life [33]: 5 h | clearance [34]: 24 mL/min/kg | hepatocyte CLint [20]: 11 µL/min/1e6 cells | fraction unbound [35]: 0.05 | IC50 (Cytochrome P450 3A4): 1600 nM | IC50 [2]: 64 nM | IC50 [3]: 10 nM | microsomal CLint [36]: 5 µL/min/mg | bioavailability [37]: 11%

O=C(Nc1cccc(C(F)(F)F)c1)N1CCN(C[C@@H]2CCCN(C3CC3)C2)CC1
IC50 [1]: 13000 nM | IC50 [2]: 578 nM | IC50 [3]: 98 nM

O=C(Nc1ccc(Cl)c(C(F)(F)F)c1)N1CCN(C[C@@H]2CCCN(C3CC3)C2)CC1
IC50 [1]: 6300 nM | IC50 [2]: 421 nM | IC50 [3]: 35 nM

CN1CCN[C@@H](C(=O)N2CCN(C(=O)Nc3ccc(Cl)c(Cl)c3)CC2)C1
IC50 [1]: 20000 nM | IC50 [2]: 362 nM | IC50 [3]: 69 nM

O=C(Nc1ccc(C(F)(F)F)c(Cl)c1)N1CCN(C[C@@H]2CCCN(C3CC3)C2)CC1
IC50 [2]: 31 nM | IC50 [3]: 17 nM

CC(C)N1CCC[C@@H](CN2CCN(C(=O)Nc3ccc(Cl)c(Cl)c3)CC2)C1
logD [17]: 1.62 | logP [22]: 4.2 | IC50 [1]: 1300 nM | IC50 [2]: 58 nM | pKa [25]: 10 | IC50 [3]: 16 nM
